pIC50: −log10 of the molar value.
Target: Human CGRP Receptor (Homo sapiens (Human), UniProt O60894+Q16602)
Experiment: Radioligand binding assay, [125I]-CGRP displacement on SK-N-MC membranes
Experimental: Tissue Culture. SK-N-MC cells were grown at 37° C. in 5% CO2 as a monolayer in medium consisting of MEM with Earle's salts and L-glutamine (Invitrogen) supplemented with 10% fetal bovine serum (Invitrogen).
Membrane Preparation. Crude membranes were prepared from SK-N-MC cells expressing CGRP receptors. […] The cells were transferred from plates to polypropylene tubes (16×100 mm) and homogenized using a polytron. Homogenates were centrifuged at 32,000×g for 30 min. The pellets were resuspended in cold hypotonic lysis buffer with 0.1% mammalian protease inhibitor cocktail (Sigma) and assayed for protein concentration. The SK-N-MC homogenate was aliquoted and stored at −80° C.
Radioligand Binding Assay. The compounds of invention were solubilized and carried through serial dilutions using 100% DMSO. Aliquots from the compound serial dilutions were further diluted 25 fold into assay buffer (50 mM Tris-Cl pH 7.5, 5 mM MgCl2, 0.005% Triton X-100) and transferred (volume 50 μl) into 96 well assay plates. […] SK-N-MC membranes were thawed, diluted in assay buffer with fresh 0.1% mammalian protease inhibitor cocktail (Sigma), and re-homogenized. SK-N-MC homogenate (7 μg/well) was added in a volume of 100 μl. The assay plates were then incubated at room temperature for 2 h. Assays were stopped by addition of excess cold wash buffer (50 mM Tris-Cl pH 7.5, 0.1% BSA) immediately followed by filtration over glass fiber filters (Whatman GF/B) previously soaked in 0.5% PEI. Non-specific binding was defined with 1 μM beta-CGRP (Bachem). Protein bound radioactivity was determined using a gamma or scintillation counter. […] All compounds of invention were evaluated in at least two separate experiments.

Sequence of Human CGRP Receptor (Q16602 23-461): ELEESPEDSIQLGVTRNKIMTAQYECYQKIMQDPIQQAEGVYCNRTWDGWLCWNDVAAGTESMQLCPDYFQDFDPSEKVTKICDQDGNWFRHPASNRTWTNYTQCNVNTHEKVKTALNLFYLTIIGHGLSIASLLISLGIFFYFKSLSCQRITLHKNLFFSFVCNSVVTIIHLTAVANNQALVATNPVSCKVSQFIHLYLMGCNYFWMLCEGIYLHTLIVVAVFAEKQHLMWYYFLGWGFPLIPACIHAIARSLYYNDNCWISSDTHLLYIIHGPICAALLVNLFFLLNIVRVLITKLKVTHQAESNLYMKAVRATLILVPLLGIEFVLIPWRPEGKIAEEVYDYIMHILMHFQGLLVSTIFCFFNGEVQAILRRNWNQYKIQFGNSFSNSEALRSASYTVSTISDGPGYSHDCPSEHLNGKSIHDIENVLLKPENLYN
Sequence of Human CGRP Receptor (O60894 27-148): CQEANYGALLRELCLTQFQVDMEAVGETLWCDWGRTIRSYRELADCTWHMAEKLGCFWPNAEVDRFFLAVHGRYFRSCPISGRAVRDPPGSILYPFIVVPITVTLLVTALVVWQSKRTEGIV

| Structure (SMILES) | pIC50 |
| --- | --- |
| CCN1CCn2c(cnc2C(Cc2cc(C)c3[nH]ncc3c2)OC(=O)N2CCC(c3cc4ccccc4[nH]c3=O)CC2)C1 (racemic) [Example 2, (±)-1-(7-ethyl-5,6,7,8-tetrahydroimidazo[1,5-a]pyrazin-3-yl)-2-(7-methyl-1H-indazol-5-yl)ethyl 4-(2-oxo-1,2-dihydroquinolin-3-yl)piperidine-1-carboxylate] | 8.77 |
| Cc1cc(CC(OC(=O)N2CCC(c3cc4ccccc4[nH]c3=O)CC2)c2ncc3n2CCN(Cc2ccccc2)C3)cc2cn[nH]c12 (racemic) [Example 1, (±)-1-(7-Benzyl-5,6,7,8-tetrahydroimidazo[1,5-c]pyrazin-3-yl)-2-(7-methyl-1H-indazol-5-yl)ethyl 4-(2-oxo-1,2-dihydroquinolin-3-yl)piperidine-1-carboxylate] | 9.59 |
| Cc1cc(CC(OC(=O)N2CCC(c3cc4ccccc4[nH]c3=O)CC2)c2ncc3n2CCN(C2CCCCC2)C3)cc2cn[nH]c12 (racemic) [Example 4, (±)-1-(7-Cyclohexyl-5,6,7,8-tetrahydroimidazo[1,5-a]pyrazin-3-yl)-2-(7-methyl-1H-indazol-5-yl)ethyl 4-(2-oxo-1,2-dihydroquinolin-3-yl)piperidine-1-carboxylate] | 9.66 |
| Cc1cc(CC(OC(=O)N2CCC(c3cc4ccccc4[nH]c3=O)CC2)c2ncc3n2CCNC3)cc2cn[nH]c12 (racemic) [Example 3, (±)-2-(7-methyl-1H-indazol-5-yl)-1-(5,6,7,8-tetrahydroimidazo[1,5-a]pyrazin-3-yl)ethyl 4-(2-oxo-1,2-dihydroquinolin-3-yl)piperidine-1-carboxylate] | 8.53 |

Source: US9695176B2, “Substituted imidazo[1,5-a]pyrazines as CGRP receptor antagonists” (BRISTOL-MYERS SQUIBB COMPANY, priority 2012, dated 2017)
